In ChEMBL document CHEMBL4507272 (2021):

Legend:
[1] = target: Casein kinase II subunit alpha' (Homo sapiens) (UniProt P19784); settings: Compound concentration 1000.0 nM
[2] = target: SRSF protein kinase 3 (Homo sapiens) (UniProt Q9UPE1); settings: Compound concentration 1000.0 nM
[3] = target: Tyrosine-protein kinase Fyn (Homo sapiens) (UniProt P06241); settings: Compound concentration 1000.0 nM
[4] = tested on: Tyrosine-protein kinase ABL1 (Homo sapiens), P00519 [M351T]; settings: Compound concentration 1000.0 nM
[5] = target: Calcium/calmodulin-dependent protein kinase kinase 1 (Homo sapiens) (UniProt Q8N5S9); settings: Compound concentration 1000.0 nM
[6] = target: TGF-beta receptor type-1 (Homo sapiens) (UniProt P36897); settings: Compound concentration 1000.0 nM
[7] = target: Interleukin-1 receptor-associated kinase 3 (Homo sapiens) (UniProt Q9Y616); settings: Compound concentration 1000.0 nM
[8] = target: Tyrosine-protein kinase ABL2 (Homo sapiens) (UniProt P42684); settings: Compound concentration 1000.0 nM
[9] = target: Receptor tyrosine-protein kinase erbB-3 (Homo sapiens) (UniProt P21860); settings: Compound concentration 1000.0 nM
[10] = target: Cyclin-dependent kinase 8 (Homo sapiens) (UniProt P49336); settings: Compound concentration 1000.0 nM
[11] = target: Cyclin-dependent kinase 7 (Homo sapiens) (UniProt P50613); settings: Compound concentration 1000.0 nM
[12] = tested on: Epidermal growth factor receptor (Homo sapiens), P00533 [G719S]; settings: Compound concentration 1000.0 nM
[13] = target: Dual specificity mitogen-activated protein kinase kinase 6 (Homo sapiens) (UniProt P52564); settings: Compound concentration 1000.0 nM
[14] = target: Bone morphogenetic protein receptor type-2 (Homo sapiens) (UniProt Q13873); settings: Compound concentration 1000.0 nM
[15] = target: Serine/threonine-protein kinase LATS2 (Homo sapiens) (UniProt Q9NRM7); settings: Compound concentration 1000.0 nM
[16] = target: Serine/threonine-protein kinase NLK (Homo sapiens) (UniProt Q9UBE8); settings: Compound concentration 1000.0 nM
[17] = target: Cyclin-dependent kinase 2 (Homo sapiens) (UniProt P24941); settings: Compound concentration 1000.0 nM
[18] = target: 1-phosphatidylinositol 3-phosphate 5-kinase (Homo sapiens) (UniProt Q9Y2I7); settings: Compound concentration 1000.0 nM
Chain of 1-phosphatidylinositol 3-phosphate 5-kinase (Homo sapiens) (Q9Y2I7 whole entry): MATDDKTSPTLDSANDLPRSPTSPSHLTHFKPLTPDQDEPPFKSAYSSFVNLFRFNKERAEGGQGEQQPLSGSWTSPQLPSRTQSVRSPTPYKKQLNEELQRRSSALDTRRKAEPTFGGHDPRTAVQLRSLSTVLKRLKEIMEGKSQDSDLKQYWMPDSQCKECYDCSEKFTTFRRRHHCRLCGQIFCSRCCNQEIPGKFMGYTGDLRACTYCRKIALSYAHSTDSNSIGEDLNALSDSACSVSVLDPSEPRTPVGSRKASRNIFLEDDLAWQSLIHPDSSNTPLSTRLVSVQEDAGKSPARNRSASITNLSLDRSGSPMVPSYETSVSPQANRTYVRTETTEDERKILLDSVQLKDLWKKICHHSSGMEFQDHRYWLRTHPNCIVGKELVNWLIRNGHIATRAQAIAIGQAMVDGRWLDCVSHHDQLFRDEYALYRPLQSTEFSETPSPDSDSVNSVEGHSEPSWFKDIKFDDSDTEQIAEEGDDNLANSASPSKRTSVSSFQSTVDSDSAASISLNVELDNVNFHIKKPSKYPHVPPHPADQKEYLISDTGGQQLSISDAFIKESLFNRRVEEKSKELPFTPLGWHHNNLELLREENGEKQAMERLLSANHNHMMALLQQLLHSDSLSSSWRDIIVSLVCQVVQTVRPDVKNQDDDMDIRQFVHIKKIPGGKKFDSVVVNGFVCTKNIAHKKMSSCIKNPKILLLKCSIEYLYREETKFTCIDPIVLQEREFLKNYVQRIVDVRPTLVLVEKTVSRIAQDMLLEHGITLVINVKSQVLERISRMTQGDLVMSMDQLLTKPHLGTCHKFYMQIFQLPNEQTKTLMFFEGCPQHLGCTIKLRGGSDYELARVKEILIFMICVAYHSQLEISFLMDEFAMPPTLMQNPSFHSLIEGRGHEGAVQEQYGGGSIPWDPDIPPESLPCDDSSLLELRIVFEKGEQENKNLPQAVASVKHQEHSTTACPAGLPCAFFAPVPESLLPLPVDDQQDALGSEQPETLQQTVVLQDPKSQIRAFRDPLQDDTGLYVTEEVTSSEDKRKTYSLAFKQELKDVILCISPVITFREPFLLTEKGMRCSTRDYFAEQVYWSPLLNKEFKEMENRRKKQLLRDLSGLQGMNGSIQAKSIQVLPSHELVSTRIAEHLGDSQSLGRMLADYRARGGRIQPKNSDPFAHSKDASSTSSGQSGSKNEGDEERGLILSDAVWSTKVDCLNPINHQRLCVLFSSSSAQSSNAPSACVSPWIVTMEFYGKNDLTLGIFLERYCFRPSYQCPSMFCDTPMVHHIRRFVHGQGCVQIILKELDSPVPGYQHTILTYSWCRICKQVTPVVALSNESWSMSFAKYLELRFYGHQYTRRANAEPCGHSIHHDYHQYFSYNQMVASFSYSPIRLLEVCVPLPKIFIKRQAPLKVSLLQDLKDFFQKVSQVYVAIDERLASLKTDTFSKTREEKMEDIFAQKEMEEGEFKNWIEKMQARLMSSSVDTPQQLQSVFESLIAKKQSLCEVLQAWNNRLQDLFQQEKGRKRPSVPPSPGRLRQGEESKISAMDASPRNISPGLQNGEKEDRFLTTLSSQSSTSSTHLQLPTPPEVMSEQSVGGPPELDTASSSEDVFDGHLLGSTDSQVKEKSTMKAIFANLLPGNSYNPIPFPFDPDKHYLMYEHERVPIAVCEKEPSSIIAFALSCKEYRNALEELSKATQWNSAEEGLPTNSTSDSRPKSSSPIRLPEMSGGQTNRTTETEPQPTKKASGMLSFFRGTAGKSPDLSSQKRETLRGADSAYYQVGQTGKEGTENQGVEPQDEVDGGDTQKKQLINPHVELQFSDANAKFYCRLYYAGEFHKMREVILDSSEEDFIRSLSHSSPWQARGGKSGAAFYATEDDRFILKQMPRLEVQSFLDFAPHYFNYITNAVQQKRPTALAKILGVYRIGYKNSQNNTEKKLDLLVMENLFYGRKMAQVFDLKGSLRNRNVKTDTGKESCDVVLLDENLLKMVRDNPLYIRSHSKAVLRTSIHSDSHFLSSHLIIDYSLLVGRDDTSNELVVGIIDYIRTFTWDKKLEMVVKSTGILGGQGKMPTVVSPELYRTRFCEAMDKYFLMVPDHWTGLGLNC

[19] = target: Serine/threonine-protein kinase DCLK3 (Homo sapiens) (UniProt Q9C098); settings: Compound concentration 1000.0 nM
[20] = tested on: Tyrosine-protein kinase ABL1 (Homo sapiens), P00519 [F317L]; settings: Compound concentration 1000.0 nM
[21] = target: Receptor-interacting serine/threonine-protein kinase 4 (Homo sapiens) (UniProt P57078); settings: Compound concentration 1000.0 nM
[22] = target: Serine/threonine-protein kinase D3 (Homo sapiens) (UniProt O94806); settings: Compound concentration 1000.0 nM
[23] = target: Tyrosine-protein kinase Fgr (Homo sapiens) (UniProt P09769); settings: Compound concentration 1000.0 nM
Chain of Tyrosine-protein kinase Fgr (Homo sapiens) (P09769 2-529 limits assumed): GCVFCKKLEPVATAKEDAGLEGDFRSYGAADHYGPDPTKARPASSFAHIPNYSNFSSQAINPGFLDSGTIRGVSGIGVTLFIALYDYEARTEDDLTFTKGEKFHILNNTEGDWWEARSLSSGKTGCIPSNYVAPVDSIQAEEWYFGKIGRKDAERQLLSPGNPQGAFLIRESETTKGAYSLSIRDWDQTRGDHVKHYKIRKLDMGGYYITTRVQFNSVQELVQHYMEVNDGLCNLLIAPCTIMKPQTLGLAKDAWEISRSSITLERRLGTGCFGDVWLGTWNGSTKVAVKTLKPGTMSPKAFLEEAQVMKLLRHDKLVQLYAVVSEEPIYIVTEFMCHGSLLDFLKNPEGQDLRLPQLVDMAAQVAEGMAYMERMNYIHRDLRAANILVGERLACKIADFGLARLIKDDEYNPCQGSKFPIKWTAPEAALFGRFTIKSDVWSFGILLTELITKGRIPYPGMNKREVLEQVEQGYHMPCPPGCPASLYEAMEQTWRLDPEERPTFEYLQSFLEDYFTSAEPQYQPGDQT

[24] = target: Mitogen-activated protein kinase kinase kinase 20 (Homo sapiens) (UniProt Q9NYL2); settings: Compound concentration 1000.0 nM
Chain of Mitogen-activated protein kinase kinase kinase 20 (Homo sapiens) (Q9NYL2 2-800 limits assumed): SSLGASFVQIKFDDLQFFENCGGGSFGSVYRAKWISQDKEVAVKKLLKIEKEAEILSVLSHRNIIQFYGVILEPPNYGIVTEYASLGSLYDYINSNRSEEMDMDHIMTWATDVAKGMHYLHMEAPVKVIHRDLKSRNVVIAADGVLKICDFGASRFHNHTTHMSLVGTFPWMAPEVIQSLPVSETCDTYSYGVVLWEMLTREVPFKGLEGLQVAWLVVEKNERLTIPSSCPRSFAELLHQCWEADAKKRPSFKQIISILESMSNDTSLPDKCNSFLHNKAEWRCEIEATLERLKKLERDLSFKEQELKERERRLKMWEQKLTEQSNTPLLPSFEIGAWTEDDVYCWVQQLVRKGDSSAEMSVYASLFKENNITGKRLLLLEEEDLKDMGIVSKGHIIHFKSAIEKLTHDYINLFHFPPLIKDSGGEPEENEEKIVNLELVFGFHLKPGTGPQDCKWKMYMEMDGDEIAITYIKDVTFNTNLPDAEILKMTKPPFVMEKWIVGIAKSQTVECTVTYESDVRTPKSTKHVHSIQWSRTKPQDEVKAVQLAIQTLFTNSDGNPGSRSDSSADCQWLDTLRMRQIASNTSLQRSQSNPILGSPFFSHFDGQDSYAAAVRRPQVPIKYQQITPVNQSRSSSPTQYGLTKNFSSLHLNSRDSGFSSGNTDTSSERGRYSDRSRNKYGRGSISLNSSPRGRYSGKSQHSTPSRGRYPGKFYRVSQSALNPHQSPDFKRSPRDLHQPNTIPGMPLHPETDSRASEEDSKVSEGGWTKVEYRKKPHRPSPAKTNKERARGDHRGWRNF

[25] = target: Serine/threonine-protein kinase TAO2 (Homo sapiens) (UniProt Q9UL54); settings: Compound concentration 1000.0 nM
[26] = target: Activin receptor type-1 (Homo sapiens) (UniProt Q04771); settings: Compound concentration 1000.0 nM
[27] = target: Membrane-associated tyrosine- and threonine-specific cdc2-inhibitory kinase (Homo sapiens) (UniProt Q99640); settings: Compound concentration 1000.0 nM
[28] = target: Epithelial discoidin domain-containing receptor 1 (Homo sapiens) (UniProt Q08345); settings: Compound concentration 1000.0 nM
[29] = target: Death-associated protein kinase 3 (Homo sapiens) (UniProt O43293); settings: Compound concentration 1000.0 nM
[30] = target: Tyrosine-protein kinase Lck (Homo sapiens) (UniProt P06239); settings: Compound concentration 1000.0 nM
[31] = target: 5-hydroxytryptamine receptor 6 (Homo sapiens) (UniProt P50406); settings: Compound concentration 10.0 uM
Chain of 5-hydroxytryptamine receptor 6 (Homo sapiens) (P50406 whole entry): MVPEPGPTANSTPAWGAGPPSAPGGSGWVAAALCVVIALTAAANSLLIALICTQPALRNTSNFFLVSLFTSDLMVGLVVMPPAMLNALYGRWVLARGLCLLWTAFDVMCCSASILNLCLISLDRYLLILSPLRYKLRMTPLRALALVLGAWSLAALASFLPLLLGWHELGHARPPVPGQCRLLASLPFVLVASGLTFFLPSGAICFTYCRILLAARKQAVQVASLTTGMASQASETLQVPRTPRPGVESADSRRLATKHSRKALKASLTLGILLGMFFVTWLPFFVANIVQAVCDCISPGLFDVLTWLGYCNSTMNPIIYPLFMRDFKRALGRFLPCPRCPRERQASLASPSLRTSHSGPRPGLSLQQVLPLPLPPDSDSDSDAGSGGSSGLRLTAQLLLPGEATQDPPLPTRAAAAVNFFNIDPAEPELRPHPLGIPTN

[32] = target: Serine/threonine-protein kinase mTOR (Homo sapiens) (UniProt P42345); settings: Compound concentration 1000.0 nM
[33] = target: Protein kinase C delta type (Homo sapiens) (UniProt Q05655); settings: Compound concentration 1000.0 nM
[34] = target: Dual specificity protein kinase TTK (Homo sapiens) (UniProt P33981); settings: Compound concentration 1000.0 nM
[35] = target: Serine/threonine-protein kinase 24 (Homo sapiens) (UniProt Q9Y6E0); settings: Compound concentration 1000.0 nM
[36] = target: Serine/threonine-protein kinase PAK 5 (Homo sapiens) (UniProt Q9P286); settings: Compound concentration 1000.0 nM
[37] = target: Casein kinase I isoform alpha-like (Homo sapiens) (UniProt Q8N752); settings: Compound concentration 1000.0 nM
[38] = target: Serine/threonine-protein kinase MRCK gamma (Homo sapiens) (UniProt Q6DT37); settings: Compound concentration 1000.0 nM
[39] = target: Serine/threonine-protein kinase DCLK2 (Homo sapiens) (UniProt Q8N568); settings: Compound concentration 1000.0 nM
[40] = target: TGF-beta receptor type-2 (Homo sapiens) (UniProt P37173); settings: Compound concentration 1000.0 nM
Chain of TGF-beta receptor type-2 (Homo sapiens) (P37173 whole entry): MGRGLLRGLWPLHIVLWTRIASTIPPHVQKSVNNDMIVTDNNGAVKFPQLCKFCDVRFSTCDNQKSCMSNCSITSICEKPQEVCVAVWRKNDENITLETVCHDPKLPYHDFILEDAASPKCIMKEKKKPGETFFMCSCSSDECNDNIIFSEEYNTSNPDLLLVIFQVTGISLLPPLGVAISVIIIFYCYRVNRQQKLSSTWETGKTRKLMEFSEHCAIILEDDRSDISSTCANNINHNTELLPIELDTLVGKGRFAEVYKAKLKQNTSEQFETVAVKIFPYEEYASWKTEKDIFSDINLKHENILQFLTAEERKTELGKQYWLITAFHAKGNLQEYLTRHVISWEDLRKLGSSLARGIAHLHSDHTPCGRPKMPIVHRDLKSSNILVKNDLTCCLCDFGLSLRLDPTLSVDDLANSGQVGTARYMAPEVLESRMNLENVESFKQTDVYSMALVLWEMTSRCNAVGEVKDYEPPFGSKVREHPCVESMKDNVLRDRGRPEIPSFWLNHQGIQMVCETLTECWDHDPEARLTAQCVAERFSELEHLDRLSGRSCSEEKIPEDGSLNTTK

[41] = target: Serine/threonine-protein kinase pim-3 (Homo sapiens) (UniProt Q86V86); settings: Compound concentration 1000.0 nM
[42] = target: Serine/threonine-protein kinase MRCK alpha (Homo sapiens) (UniProt Q5VT25); settings: Compound concentration 1000.0 nM
[43] = target: Dual specificity tyrosine-phosphorylation-regulated kinase 1B (Homo sapiens) (UniProt Q9Y463); settings: Compound concentration 1000.0 nM
[44] = tested on: Receptor-type tyrosine-protein kinase FLT3 (Homo sapiens), P36888 [D835V]; settings: Compound concentration 1000.0 nM
[45] = target: Serine/threonine-protein kinase WNK1 (Homo sapiens) (UniProt Q9H4A3); settings: Compound concentration 1000.0 nM

CC(=O)C1=C(C)N(c2cccc(C(F)(F)F)c2)C(=O)N[C@@H]1c1ccc(C#N)nc1 [BAY-678]
inactive: residual activity [1] 75.7% | residual activity [2] 100% | residual activity [3] 100% | residual activity [4] 100% | residual activity [5] 100% | residual activity [6] 99.2% | residual activity [7] 100% | residual activity [8] 100% | residual activity [9] 100% | residual activity [10] 65.3% | residual activity [11] 90.6% | residual activity [12] 100% | residual activity [13] 94.6% | residual activity [14] 100% | residual activity [15] 100% | residual activity [16] 93% | residual activity [17] 100% | residual activity [18] 90% | residual activity [19] 53.9% | residual activity [20] 100% | residual activity [21] 100% | residual activity [22] 78% | residual activity [23] 86.7% | residual activity [24] 96.9% | residual activity [25] 94.4% | residual activity [26] 74.5% | residual activity [27] 90.6% | residual activity [28] 71.5% | residual activity [29] 83.8% | residual activity [30] 100% | inhibition [31] -6.02% | residual activity [32] 92.5% | residual activity [33] 100% | residual activity [34] 97.9% | residual activity [35] 95.4% | residual activity [36] 96.2% | residual activity [37] 100% | residual activity [38] 79.3% | residual activity [39] 88% | residual activity [40] 67.8% | residual activity [41] 100% | residual activity [42] 100% | residual activity [43] 100% | residual activity [44] 64.2% | residual activity [45] 89%
